Measurements from article PMC12951562, “SH2scan: Mapping SH2 Domain-Ligand Binding Selectivity for Inhibitors and Degraders” (Journal of Medicinal Chemistry, 2026).
Like-named read-outs stand apart in the source and are kept apart here. Non-standard residues stand in square brackets, D forms with d. Residues, ends and D or L forms follow the SMILES beside them. *: point of attachment. pY = N[C@@H](Cc1ccc(OP(=O)(O)O)cc1)C(=O)O; Caffeoyl = O=C(/C=C/c1ccc(O)c(O)c1)*

Columns and labels:
Assay in all cases: biochemical
Type in all cases: binding
[1] = molecular target: T1, APS (SH2B2) (Homo sapiens, UniProt O14492)
T1 construct: the DNA-tagged SH2 domain concentrations used in this study were <0.1 nM; made in house; host or cells: HEK293 (transient transfection; unpurified extract)
T1 sequence (O14492 417-515 limits assumed): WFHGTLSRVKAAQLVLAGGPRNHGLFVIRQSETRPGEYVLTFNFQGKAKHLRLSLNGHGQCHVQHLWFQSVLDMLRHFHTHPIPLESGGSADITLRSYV

[2] = molecular target: T2, PLCG2(SH2dom.N-term.) (Homo sapiens, UniProt P16885); conditions: for remaining activity at 10 µM: read-out: percent of DMSO vehicle control
T2 construct: SH2dom.N-term. denotes SH2 domain closest to N-terminus of protein; made in house; host or cells: HEK293 (transient transfection, unpurified extract)
T2 sequence (P16885 532-635 limits assumed): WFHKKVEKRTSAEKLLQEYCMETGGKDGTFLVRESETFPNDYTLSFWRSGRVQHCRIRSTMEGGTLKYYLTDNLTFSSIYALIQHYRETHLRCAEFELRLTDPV

[3] = molecular target: T3, SH2D6 (Homo sapiens, UniProt Q7Z4S9); conditions: for remaining activity at 10 µM: read-out: percent of DMSO vehicle control
T3 construct: made in house; host or cells: HEK293 (transient transfection), unpurified extract
T3 sequence (Q7Z4S9 whole entry): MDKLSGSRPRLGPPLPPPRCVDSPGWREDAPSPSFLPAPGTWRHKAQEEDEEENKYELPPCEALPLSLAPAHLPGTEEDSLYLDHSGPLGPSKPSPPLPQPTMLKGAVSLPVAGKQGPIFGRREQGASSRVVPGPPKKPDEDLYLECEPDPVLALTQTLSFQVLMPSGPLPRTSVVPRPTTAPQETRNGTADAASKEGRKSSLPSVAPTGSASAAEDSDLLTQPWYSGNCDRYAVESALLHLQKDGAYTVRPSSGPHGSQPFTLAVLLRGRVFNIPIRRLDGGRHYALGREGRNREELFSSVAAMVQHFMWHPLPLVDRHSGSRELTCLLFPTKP

[4] = molecular target: T4, ABL2 (Homo sapiens, UniProt P42684)
T4 construct: the DNA-tagged SH2 domain concentrations used in this study were <0.1 nM; made in house; host or cells: HEK293 (transient transfection; unpurified extract)
T4 sequence (P42684 173-263 limits assumed): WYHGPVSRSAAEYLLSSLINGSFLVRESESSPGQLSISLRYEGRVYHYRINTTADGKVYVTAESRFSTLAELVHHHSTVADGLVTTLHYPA

[5] = molecular target: T5, STAT6 (Homo sapiens, UniProt P42226)
T5 construct: made in house; host or cells: HEK293 (transient transfection), unpurified extract
T5 sequence (P42226 1-847): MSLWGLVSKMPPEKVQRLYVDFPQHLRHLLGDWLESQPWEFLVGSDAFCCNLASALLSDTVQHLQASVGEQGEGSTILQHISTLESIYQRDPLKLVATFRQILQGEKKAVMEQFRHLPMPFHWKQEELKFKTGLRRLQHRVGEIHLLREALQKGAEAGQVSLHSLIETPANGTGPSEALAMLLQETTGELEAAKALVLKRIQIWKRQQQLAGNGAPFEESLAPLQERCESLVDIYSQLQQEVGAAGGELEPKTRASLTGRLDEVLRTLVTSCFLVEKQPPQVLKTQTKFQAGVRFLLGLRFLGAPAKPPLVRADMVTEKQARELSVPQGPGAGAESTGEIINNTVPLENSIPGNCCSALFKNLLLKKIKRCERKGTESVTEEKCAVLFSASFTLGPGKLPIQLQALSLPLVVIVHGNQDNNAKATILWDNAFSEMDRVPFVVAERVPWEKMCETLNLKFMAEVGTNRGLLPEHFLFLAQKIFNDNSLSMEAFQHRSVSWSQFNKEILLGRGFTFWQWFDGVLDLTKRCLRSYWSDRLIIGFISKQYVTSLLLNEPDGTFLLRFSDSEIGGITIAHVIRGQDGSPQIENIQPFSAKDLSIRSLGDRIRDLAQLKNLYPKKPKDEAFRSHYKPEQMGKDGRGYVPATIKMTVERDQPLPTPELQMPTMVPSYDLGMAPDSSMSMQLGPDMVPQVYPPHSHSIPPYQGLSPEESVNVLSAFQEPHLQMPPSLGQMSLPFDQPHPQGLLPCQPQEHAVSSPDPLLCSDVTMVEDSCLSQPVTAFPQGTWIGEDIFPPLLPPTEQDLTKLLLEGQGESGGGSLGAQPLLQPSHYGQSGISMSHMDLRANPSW

[6] = molecular target: T6, VAV3 (Homo sapiens, UniProt Q9UKW4)
T6 construct: made in house; host or cells: HEK293 (transient transfection), unpurified extract
T6 sequence (Q9UKW4 1-847): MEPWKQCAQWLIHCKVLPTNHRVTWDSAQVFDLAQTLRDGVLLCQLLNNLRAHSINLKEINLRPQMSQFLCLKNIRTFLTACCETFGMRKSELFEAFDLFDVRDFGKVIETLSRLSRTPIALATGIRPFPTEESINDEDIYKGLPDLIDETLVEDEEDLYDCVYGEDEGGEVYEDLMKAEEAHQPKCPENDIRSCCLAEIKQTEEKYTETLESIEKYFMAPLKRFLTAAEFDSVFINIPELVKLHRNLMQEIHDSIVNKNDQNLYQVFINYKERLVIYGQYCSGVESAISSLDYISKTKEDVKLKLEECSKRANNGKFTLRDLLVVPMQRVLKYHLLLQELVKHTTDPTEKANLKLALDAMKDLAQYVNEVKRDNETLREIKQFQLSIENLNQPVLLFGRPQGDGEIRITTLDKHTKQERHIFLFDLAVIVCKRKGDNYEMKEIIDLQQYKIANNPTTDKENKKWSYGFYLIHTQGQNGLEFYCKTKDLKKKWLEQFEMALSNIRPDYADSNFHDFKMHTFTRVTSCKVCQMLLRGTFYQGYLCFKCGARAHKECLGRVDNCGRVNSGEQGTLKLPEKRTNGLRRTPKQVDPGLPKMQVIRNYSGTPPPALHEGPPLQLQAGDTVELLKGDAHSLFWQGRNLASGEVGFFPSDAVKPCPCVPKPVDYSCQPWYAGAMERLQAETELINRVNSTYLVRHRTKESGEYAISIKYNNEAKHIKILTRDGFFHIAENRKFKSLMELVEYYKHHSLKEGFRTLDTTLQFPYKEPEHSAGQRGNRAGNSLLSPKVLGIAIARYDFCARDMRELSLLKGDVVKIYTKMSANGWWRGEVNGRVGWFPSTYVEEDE

[7] = molecular target: T7, STAP2 (Homo sapiens, UniProt Q9UGK3)
T7 construct: made in house; host or cells: HEK293 (transient transfection), unpurified extract
T7 sequence (Q9UGK3 1-403): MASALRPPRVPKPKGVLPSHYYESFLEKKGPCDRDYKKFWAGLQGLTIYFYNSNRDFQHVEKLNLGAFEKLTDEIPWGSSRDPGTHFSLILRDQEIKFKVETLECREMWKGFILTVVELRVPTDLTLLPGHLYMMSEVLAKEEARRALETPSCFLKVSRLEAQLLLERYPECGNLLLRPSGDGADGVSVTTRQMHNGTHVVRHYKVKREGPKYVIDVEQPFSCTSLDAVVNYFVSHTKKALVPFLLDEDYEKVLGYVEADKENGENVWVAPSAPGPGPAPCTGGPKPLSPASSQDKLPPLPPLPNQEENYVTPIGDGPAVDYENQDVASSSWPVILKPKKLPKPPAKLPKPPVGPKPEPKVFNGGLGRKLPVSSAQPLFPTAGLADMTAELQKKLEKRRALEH

[8] = molecular target: T8, BLK (Homo sapiens, UniProt P51451); conditions: for remaining activity at 10 µM: read-out: percent of DMSO vehicle control
T8 construct: the DNA-tagged SH2 domain concentrations used in this study were <0.1 nM; made in house; host or cells: HEK293 (transient transfection; unpurified extract)
T8 sequence (P51451 124-220 limits assumed): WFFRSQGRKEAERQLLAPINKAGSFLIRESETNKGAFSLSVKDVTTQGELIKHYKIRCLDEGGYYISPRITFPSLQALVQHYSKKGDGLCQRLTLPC

[9] = read-out: percent of DMSO vehicle control
[10] = primary screen, 10 μM, read-out: percent of DMSO vehicle control

## CC[C@H](C)[C@H](NC(=O)[C@H](CCC(=O)O)NC(=O)[C@H](CCC(=O)O)NC(=O)[C@H](Cc1ccc(OP(=O)(O)O)cc1)NC(C)=O)C(=O)N[C@@H](CCC(=O)O)C(N)=O [Ac-pYEEIE-NH2] (Ac-[pY]EEIE-NH2)
[1]; primary screen, 10 μM
  percent of DMSO vehicle control: 121.8%
[2]; primary screen, 10 μM
  percent of DMSO vehicle control: 92.3±3.3%
[3]; primary screen, 10 μM
  percent of DMSO vehicle control: 100.6%
[4]; primary screen, 10 μM
  percent of DMSO vehicle control: 110.7%
[5]; primary screen, 10 μM
  percent of DMSO vehicle control: 162.5%
[6]; primary screen, 10 μM
  percent of DMSO vehicle control: 75.8%
[7]; primary screen, 10 μM
  percent of DMSO vehicle control: 80.1±5.7%
[8]; primary screen, 10 μM
  percent of DMSO vehicle control: 47.8%

## CC(=O)N[C@@H](Cc1ccc(CP(=O)(O)O)cc1)C(=O)NC1(C(=O)N[C@@H](CC(N)=O)C(=O)NCCCc2c(O)ccc3ccccc23)CCCCC1 [CGP78850]
[1]; [9]
  percent of DMSO vehicle control at 10 µM: 128 ± 7.6%
[2]
  remaining activity at 10 µM: 87.2 ± 19.7%
[3]
  remaining activity at 10 µM: 89.5 ± 8.4%
[4]
  Kd: 1100 ± 120 nM
[4]; [9]
  percent of DMSO vehicle control at 10 µM: 6.2 ± 0.1%
[5]; [9]
  percent of DMSO vehicle control at 10 µM: 104 ± 11%
[6]
  Kd: 860 nM
[6]; [9]
  percent of DMSO vehicle control at 10 µM: 21.7 ± 3.7%
[7]; [9]
  percent of DMSO vehicle control at 10 µM: 86 ± 7.4%
[8]
  remaining activity at 10 µM: 42.1 ± 4.6%

## CC[C@H](C)[C@H](NC(=O)[C@H](CCC(=O)O)NC(=O)[C@H](CCC(=O)O)NC(=O)[C@H](Cc1ccc(OP(=O)(O)O)cc1)NC(=O)/C=C/c1ccc(O)c(O)c1)C(=O)N[C@@H](CCC(=O)O)C(=O)O [Caffeic acid-pYEEIE] (Caffeoyl-[pY]EEIE-OH)
[1]
  Kd: 2300 ± 450 nM
[1]; [9]
  percent of DMSO vehicle control at 10 µM: 2.2 ± 0.3%
[2]
  Kd: 1070 ± 320 nM
  remaining activity at 10 µM: 1.2 ± 0.1%
[3]
  Kd: 14500 ± 2890 nM
  remaining activity at 10 µM: 36.4 ± 4.5%
[4]
  Kd: 1400 ± 360 nM
[4]; [9]
  percent of DMSO vehicle control at 10 µM: 0.7 ± 0.4%
[5]; [9]
  percent of DMSO vehicle control at 10 µM: 103 ± 16.9%
[6]
  Kd: 70 ± 12 nM
[6]; [9]
  percent of DMSO vehicle control at 10 µM: 0.4 ± 0.1%
[7]
  Kd: 23200 nM
[7]; [9]
  percent of DMSO vehicle control at 10 µM: 58.7 ± 7.4%
[8]
  Kd: 1.5 ± 0.69 nM
  remaining activity at 10 µM: 0.1%

## O=C(CCl)Nc1cccc(CNC(=O)[C@H](Cc2ccc(OP(=O)(O)O)cc2)NC(=O)Cc2ccc(F)cc2)c1 [MN551]
[1]; [10]
  remaining activity at 10 µM: 94.2 ± 3.2%
[2]; primary screen, 10 μM
  remaining activity at 10 µM: 109%
[3]; primary screen, 10 μM
  remaining activity at 10 µM: 93.6 ± 4.8%
[4]; [10]
  remaining activity at 10 µM: 94.6 ± 1.6%
[5]; [10]
  remaining activity at 10 µM: 37.2%
[6]; [10]
  remaining activity at 10 µM: 113%
[7]; [10]
  remaining activity at 10 µM: 143%
[8]; primary screen, 10 μM
  remaining activity at 10 µM: 116%
